# Results reported in patent publication US11993640B2, “Treating inflammatory lung disease” (United States Government as represented by the Department …, priority 2019, dated 2024).
# Non-standard residues stand in square brackets, D forms with d. Residues, ends and D or L forms follow the SMILES beside them. *: point of attachment. Phe(F5) = N[C@@H](Cc1c(F)c(F)c(F)c(F)c1F)C(=O)O; hArg = N=C(N)NCCCC[C@H](N)C(=O)O; 12Ado = NCCCCCCCCCCCC(=O)O; Nle = CCCC[C@H](N)C(=O)O; Orn = NCCC[C@H](N)C(=O)O; Abu = CC[C@H](N)C(=O)O; PhAc = O=C(Cc1ccccc1)*
# Test system: HCC827 xenograft
# Experiment: Xenograft tumor growth in nude mice, lung cancer HCC827
# Assay type: in vivo
# Conditions: Panel C, 8 weeks, 5 μg/day s.c.
# Experimental: The peptides' activity was compared with GHRH antagonist MIA-602. All statistical analyzses were performed from comparing GHRA antagonists to non-treated tumor (control).
# Peptides and chemicals. GHRH antagonists MIA-602 and AVR-GHRH antagonists (see Table 2 above) were synthesized by solid phase methods and purified by HPLC. The peptides were dissolved in DMSO and further diluted in 10% 1, 2-propanediol. The final concentration of peptides was 50 µg/ml in 10% 1, 2-propanediol containing 0.1% of DMSO.
# Cell culture. Human cancer cell lines including pancreatic (PANC-1 and CFPAC-1), lung (HCC827 and H460), stomach (NCI-N87), prostate (PC3), brest (MX-1 and HCC-1806), colorectal (HT-29), and ovarian (SK-OV-3 and OVCAR-3) were obtained from the American Type Culture Collection (ATCC) and cultured at 37° C. in a humidified 95% air/5% CO2 atmosphere in the medium recommended by ATCC.
# Xenograft models of human cancers in nude mice. Female athymic (NCr nu/nu) nude mice, 5-to 6-weeks-old, obtained from the Envigo labs (Tampa, FL), were housed in laminar airflow cabinets under pathogen-free conditions with a 12-h light/12-h dark schedule, and were fed autoclaved standard chow and water. To generate mice with xenografted tumors, tumor xenografts were initiated by subcutaneous (s.c.) injection of […] human cancer cells into female nude mice. After about 4 weeks the resulting tumors were dissected and collected after removing necrosis tissues. The tumors were then cut into particles with size of ˜3 mm3 and transplanted s.c. by trocar needle into experimental animals. When tumors grew to the size of 50-60 mm3 (by volume), mice were randomized into groups and treated daily for 4-8 weeks by subcutaneous administration of 5 μg of GHRH antagonists MIA-602 or AVR-compounds (2-10 μg as indicated), or vehicle solutions (0.1% DMSO in 10% 1, 2-propanediol) respectively. Tumor sizes were measured weekly.
# Statistical analysis. One-way ANOVA followed by Bonferroni comparison were performed. Data are expressed as Mean±SEM. To determine statistical significance between animal groups, two-tailed Student's t-test was conducted. Differences were considered significant when p<0.05.
# Results. […] FIG. 1A-N represents in vivo inhibition of tumor growth during the treatment with GHRH antagonist MIA-602 and selected AVR antagonists in nude mice xenografted with various human tumors including pancreatic cancer PANC-1 (FIG. 1A) and CFPAC-1 (FIG. 1I); lung cancer HCC827 (FIGS. 1B, C) and H460 (FIG. 1H); stomach cancer N87 (FIGS. 1D-F); colon cancer HT-29 (FIG. 1G); breast cancer MX-1 and HCC-1806 (FIGS. 1J, K); ovarian cancer SK-OV-3 and OVACAR-3 (FIGS. 1L, M) and prostate cancer PC3 (FIG. 1N). See also Table 5.
smiles,measurement,setting,value
"CCCC[C@H](NC(=O)[C@@H](NC(=O)[C@H](CC(=O)O)NC(=O)[C@H](CCC(N)=O)NC(=O)[C@H](CC(C)C)NC(=O)[C@H](CC(C)C)NC(=O)[C@H](CCCN)NC(=O)[C@H](Cc1c[nH]cn1)NC(=O)[C@H](C)NC(=O)[C@H](CO)NC(=O)[C@H](CC(C)C)NC(=O)[C@H](CCC(N)=O)NC(=O)[C@H](CC)NC(=O)[C@H](CC(C)C)NC(=O)[C@@H](NC(=O)[C@H](CCCN)NC(=O)[C@H](Cc1c[nH]cn1)NC(=O)[C@H](Cc1ccc(OC)cc1)NC(=O)[C@H](CCCCNC(=N)N)NC(=O)[C@H](C)NC(=O)[C@@H](NC(=O)[C@H](Cc1c(F)c(F)c(F)c(F)c1F)NC(=O)[C@@H](NC(=O)[C@H](C)NC(=O)[C@H](CC(=O)O)NC(=O)[C@@H](CCCNC(=N)N)NC(=O)[C@H](Cc1ccc(O)cc1)NC(=O)CCCCCCCCCCCNC(=O)Cc1ccccc1)[C@@H](C)CC)[C@@H](C)O)C(C)C)[C@@H](C)CC)C(=O)N[C@H](CCCNC(=N)N)C(=O)N[C@@H](CCCCNC(=N)N)C(N)=O [MIA-602, PhAC-Ada, Tyr D-Arg, Asp, Ala, Ile, 5FPhe, Thr, Ala, Har, Tyr(Me), His, Orn, Val, Leu, Abu, Gin, Leu, Ser, Ala, His, Orn, Leu, Leu, Gin, Asp, Ile, Nle, D-Arg, Har NH2, reference compound] ({PhAc-12Ado}-Y[dR]DAI[Phe(F5)]TA[hArg]Y(Me)H[Orn]VL[Abu]QLSAH[Orn]LLQDI[Nle][dR][hArg]-NH2)",Tumor Growth %,,523.03%
same,% Inhibition,vs control,37.8%
